From article PMC9921851, “Synthesis and Preclinical Evaluation of Three Novel ^68Ga-Labeled Bispecific PSMA/FAP-Targeting Tracers for Prostate Cancer Imaging” (Molecules, 2023)
Read-outs that look alike come from different tables or passages of the source. One block for each compound: values may come before it.

Experiments:
PSMA = target: T1, PSMA (Homo sapiens, UniProt Q04609); assay: In vitro PSMA competition binding assay ([^18F]DCFPyL displacement on LNCaP cells); details: radioligand [^18F]DCFPyL, n = 3
T1 construct: endogenous in cells; host or cells: LNCaP cells (ATCC via Cedarlane)
T1 sequence (Q04609 whole entry): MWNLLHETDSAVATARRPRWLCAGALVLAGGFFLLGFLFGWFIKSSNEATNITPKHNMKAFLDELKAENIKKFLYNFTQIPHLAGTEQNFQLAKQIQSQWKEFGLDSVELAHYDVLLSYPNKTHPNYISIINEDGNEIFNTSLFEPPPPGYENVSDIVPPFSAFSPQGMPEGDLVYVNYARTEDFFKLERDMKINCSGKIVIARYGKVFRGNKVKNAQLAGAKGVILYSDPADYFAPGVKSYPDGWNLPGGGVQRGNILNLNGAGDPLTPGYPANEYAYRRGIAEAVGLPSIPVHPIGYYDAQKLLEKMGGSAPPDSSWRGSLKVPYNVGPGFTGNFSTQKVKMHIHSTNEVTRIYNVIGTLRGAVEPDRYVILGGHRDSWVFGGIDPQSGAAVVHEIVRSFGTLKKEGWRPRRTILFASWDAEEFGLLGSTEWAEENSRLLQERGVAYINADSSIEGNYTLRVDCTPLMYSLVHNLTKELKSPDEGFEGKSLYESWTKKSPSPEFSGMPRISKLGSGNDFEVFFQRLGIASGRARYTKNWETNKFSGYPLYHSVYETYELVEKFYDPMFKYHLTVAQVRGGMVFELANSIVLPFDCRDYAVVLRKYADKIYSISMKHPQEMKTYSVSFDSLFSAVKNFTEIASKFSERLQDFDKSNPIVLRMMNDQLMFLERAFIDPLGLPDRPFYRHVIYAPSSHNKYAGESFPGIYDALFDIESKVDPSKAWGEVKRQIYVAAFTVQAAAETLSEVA
Experimental: The binding affinities of Ga-AV01017, Ga-AV01030, Ga-AV01038, Ga-HTK03041, and Ga-FAPI-04 to PSMA were measured by a cell-based binding assay using PSMA-expressing LNCaP prostate cancer cells. The nonradioactive Ga-complexed standards, except Ga-FAPI-04, inhibited the binding of [^18F]DCFPyL to LNCaP cells in a dose-dependent manner (Figure 3A).
The PSMA binding assays were conducted following previously published procedures using LNCaP cells and [^18F]DCFPyL as the radioligand [34, 42, 43]. Data analyses of IC50 were performed using the nonlinear regression algorithm of GraphPad Prism 7 (San Diego, CA, USA) software.

[1] = test system: PSMA-expressing LNCaP tumor xenografts; assay: Ex vivo biodistribution in LNCaP tumor-bearing mice; details: LNCaP tumor-bearing mice, 1 h post injection, mean ± SD, n = 4
Experimental: Biodistribution studies were conducted at 1 h post injection with ^68Ga-labeled AV01017, AV01030, AV01038, HTK03041, and FAPI-04 in LNCaP tumor-bearing mice (Figure 5 and Table S4, Supplementary Materials). The results were consistent with the observation from their PET images. Tumor uptake values for [^68Ga]Ga-AV01017, [^68Ga]Ga-AV01030, [^68Ga]Ga-AV01038, [^68Ga]Ga-HTK03041, and [^68Ga]Ga-FAPI-04 were 4.38 ± 0.55, 5.17 ± 0.51, 4.25 ± 0.86, 23.1 ± 6.11, and 3.15 ± 1.43 %ID/g, respectively. […] Although not statistically significant, the bispecific tracers with a longer linker tend to have a higher blood uptake value (9.24 ± 1.55 %ID/g for [^68Ga]Ga-AV01017; 7.07 ± 0.31%ID/g for [^68Ga]Ga-AV01038; 5.75 ± 0.59 %ID/g for [^68Ga]Ga-AV01030) and a lower tumor-to-blood ratio (0.48 ± 0.11 for [^68Ga]Ga-AV01017; 0.60 ± 0.13 for [^68Ga]Ga-AV01038; 0.89 ± 0.03 for [^68Ga]Ga-AV01030).
(§1) Imaging and biodistribution studies were performed using male NOD.Cg-Rag1tm1Mom Il2rgtm1Wjl/SzJ (NRG) mice following previously published procedures. The experiments were conducted according to the guidelines established by the Canadian Council on Animal Care and approved by Animal Ethics Committee of the University of British Columbia. The mice were briefly sedated by inhalation of 2.5% isoflurane in oxygen, and 100 µL LNCaP (2 × 10^5 cells) or HEK293T:hFAP (8.5 × 10^6 cells) cells were inoculated subcutaneously behind the left shoulder. When the tumor grew to 5–8 mm in diameter over 3–4 weeks and 4–5 weeks for HEK293T:hFAP and LNCaP tumors, respectively, the mice were used for PET/CT imaging and biodistribution studies.
(§2) For biodistribution studies, the mice were injected with the radiotracer (~2–4 MBq) as described above. At 1 h post injection, the mice were euthanized by CO2 inhalation. Blood was withdrawn by cardiac puncture, and organs/tissues of interest were collected, weighed, and counted using a Perkin Elmer (Waltham, MA, USA) Wizard2 2480 automatic gamma counter.

[2] = test system: FAP-expressing HEK293T:hFAP tumor xenografts; assay: Ex vivo biodistribution in HEK293T:hFAP tumor-bearing mice; details: 1 h post injection, mean ± SD, n = 4
Experimental: Biodistribution studies were also conducted at 1 h post injection with [^68Ga]Ga-AV01017, [^68Ga]Ga-AV01030, [^68Ga]Ga-AV01038, [^68Ga]Ga-HTK03041, and [^68Ga]Ga-FAPI-04 in HEK293T:hFAP tumor-bearing mice (Figure 6 and Table S5, Supplementary Materials). Tumor uptake values for [^68Ga]Ga-AV01017, [^68Ga]Ga-AV01030, [^68Ga]Ga-AV01038, [^68Ga]Ga-HTK03041, and [^68Ga]Ga-FAPI-04 were 2.99 ± 0.37, 3.69 ± 0.81, 3.64 ± 0.83, 0.62 ± 0.19, and 12.5 ± 2.00 %ID/g, respectively. There was a very low tumor uptake in mice injected with [^68Ga]Ga-HTK03041, showing very minimal FAP expression in this tumor model. The uptake levels of these tracers on the major organs and tissues are consistent with the trends observed in the LNCaP tumor-baring mice (Figure 5 and Supplemental Table S4).
as §1, §2

[3] = test system: PSMA-expressing LNCaP tumor xenografts; parameters: method as in earlier work; details: LNCaP tumor-bearing mice, 1 h post injection, reported previously, ref 4 (supplement); cited from earlier work

IC50 (PSMA): > 1 µM
SMILES: N#C[C@@H]1CC(F)(F)CN1C(=O)CNC(=O)c1ccnc2ccc(OCCCN3CCN(C(=O)CN4CCN(CC(=O)[O-])CCN(CC(=O)[O-])CCN(CC(=O)[O-])CC4)CC3)cc12.[Ga+3] [Ga-FAPI-04, reference compound]

SMILES: N#C[C@@H]1CC(F)(F)CN1C(=O)CNC(=O)c1ccnc2ccc(OCCCN3CCN(C(=O)CN4CCN(CC(=O)[O-])CCN(CC(=O)[O-])CCN(CC(=O)[O-])CC4)CC3)cc12.[68Ga+3] [[^68Ga]Ga-FAPI-04, reference compound]
Adrenal glands uptake [1]: 2.16 ± 1.08 %ID/g | Blood uptake [1]: 2.16 ± 0.33 %ID/g | Bone uptake [1]: 4.27 ± 0.74 %ID/g | Brain uptake [1]: 0.06 ± 0.00 %ID/g | Fat uptake [1]: 0.55 ± 0.47 %ID/g | Heart uptake [1]: 0.70 ± 0.04 %ID/g | Kidneys uptake [1]: 2.36 ± 0.38 %ID/g | LNCaP tumor uptake [1]: 3.15 ± 1.43 %ID/g | Lacrimal glands uptake [1]: 0.06 ± 0.07 %ID/g | Large Intestine uptake [1]: 0.73 ± 0.09 %ID/g | Liver uptake [1]: 0.76 ± 0.08 %ID/g | Lungs uptake [1]: 1.23 ± 0.07 %ID/g | Muscle uptake [1]: 1.04 ± 0.20 %ID/g | Pancreas uptake [1]: 0.99 ± 0.25 %ID/g | Salivary glands uptake [1]: 1.36 ± 0.92 %ID/g | Seminal vesicle uptake [1]: 3.72 ± 5.09 %ID/g | Small Intestine uptake [1]: 0.74 ± 0.12 %ID/g | Spleen uptake [1]: 0.67 ± 0.11 %ID/g | Stomach uptake [1]: 0.26 ± 0.04 %ID/g | Testes uptake [1]: 0.42 ± 0.04 %ID/g | Thyroid uptake [1]: 3.62 ± 1.01 %ID/g | Tumor/blood uptake ratio [1]: 1.04 ± 0.42 | Tumor/bone uptake ratio [1]: 0.51 ± 0.28 | Tumor/kidney uptake ratio [1]: 0.90 ± 0.28 | Tumor/muscle uptake ratio [1]: 2.30 ± 0.79 | Adrenal glands uptake [2]: 1.07 ± 0.32 %ID/g | Blood uptake [2]: 1.07 ± 0.08 %ID/g | Bone uptake [2]: 3.36 ± 1.09 %ID/g | Brain uptake [2]: 0.04 ± 0.00 %ID/g | Fat uptake [2]: 0.10 ± 0.01 %ID/g | HEK293T:hFAP tumor uptake [2]: 12.5 ± 2.00 %ID/g | Heart uptake [2]: 0.34 ± 0.04 %ID/g | Kidneys uptake [2]: 1.83 ± 0.16 %ID/g | Liver uptake [2]: 0.36 ± 0.02 %ID/g | Lungs uptake [2]: 0.74 ± 0.11 %ID/g | Muscle uptake [2]: 0.67 ± 0.05 %ID/g | Pancreas uptake [2]: 0.37 ± 0.05 %ID/g | Seminal vesicle uptake [2]: 0.15 ± 0.04 %ID/g | Small Intestine uptake [2]: 0.36 ± 0.08 %ID/g | Spleen uptake [2]: 0.56 ± 0.11 %ID/g | Stomach uptake [2]: 0.07 ± 0.01 %ID/g | Testes uptake [2]: 0.28 ± 0.04 %ID/g | Tumor/blood uptake ratio [2]: 11.7 ± 2.04 | Tumor/bone uptake ratio [2]: 3.93 ± 1.16 | Tumor/kidney uptake ratio [2]: 6.85 ± 1.33 | Tumor/muscle uptake ratio [2]: 18.8 ± 4.09

SMILES: O=C([O-])CN1CCN(CC(=O)[O-])CCN(CC(=O)NC[C@H]2CC[C@H](C(=O)N[C@@H](Cc3c4ccccc4cc4ccccc34)C(=O)NCCCC[C@H](NC(=O)N[C@@H](CCC(=O)O)C(=O)O)C(=O)O)CC2)CCN(CC(=O)[O-])CC1.[68Ga+3] [[^68Ga]Ga-HTK03041, reference compound]
Adrenal glands uptake [2]: 4.18 ± 0.48 %ID/g | Blood uptake [2]: 0.71 ± 0.07 %ID/g | Bone uptake [2]: 0.42 ± 0.11 %ID/g | Brain uptake [2]: 0.03 ± 0.00 %ID/g | Fat uptake [2]: 0.55 ± 0.12 %ID/g | HEK293T:hFAP tumor uptake [2]: 0.62 ± 0.19 %ID/g | Heart uptake [2]: 0.98 ± 0.07 %ID/g | Kidneys uptake [2]: 68.4 ± 19.2 %ID/g | Lacrimal gland uptake [2]: 0.25 ± 0.33 %ID/g | Large Intestine uptake [2]: 0.43 ± 0.04 %ID/g | Liver uptake [2]: 0.72 ± 0.06 %ID/g | Lungs uptake [2]: 2.43 ± 0.08 %ID/g | Muscle uptake [2]: 0.47 ± 0.03 %ID/g | Pancreas uptake [2]: 0.71 ± 0.07 %ID/g | Salivary glands uptake [2]: 2.29 ± 0.16 %ID/g | Seminal vesicle uptake [2]: 0.32 ± 0.03 %ID/g | Small Intestine uptake [2]: 0.71 ± 0.01 %ID/g | Spleen uptake [2]: 8.09 ± 2.37 %ID/g | Stomach uptake [2]: 0.22 ± 0.04 %ID/g | Testes uptake [2]: 0.60 ± 0.41 %ID/g | Thyroid uptake [2]: 1.38 ± 0.10 %ID/g | Tumor/blood uptake ratio [2]: 0.83 ± 0.54 | Tumor/bone uptake ratio [2]: 1.39 ± 0.58 | Tumor/kidney uptake ratio [2]: 0.01 ± 0.01 | Tumor/muscle uptake ratio [2]: 1.22 ± 0.73 | Blood uptake [3]: 1.43 ± 0.30 %ID/g | Bone uptake [3]: 1.29 ± 0.45 %ID/g | Brain uptake [3]: 0.10 ± 0.05 %ID/g | Fat uptake [3]: 2.06 ± 0.59 %ID/g | Heart uptake [3]: 1.82 ± 0.62 %ID/g | Kidneys uptake [3]: 170 ± 26.4 %ID/g | LNCaP tumor uptake [3]: 23.1 ± 6.11 %ID/g | Liver uptake [3]: 1.38 ± 0.25 %ID/g | Muscle uptake [3]: 0.75 ± 0.09 %ID/g | Pancreas uptake [3]: 1.47 ± 0.16 %ID/g | Small Intestine uptake [3]: 1.14 ± 0.18 %ID/g | Spleen uptake [3]: 8.95 ± 3.22 %ID/g | Stomach uptake [3]: 0.41 ± 0.11 %ID/g | Testes uptake [3]: 1.34 ± 0.22 %ID/g | Thyroid uptake [3]: 2.48 ± 0.44 %ID/g | Tumor/blood uptake ratio [3]: 17.3 ± 7.24 | Tumor/bone uptake ratio [3]: 20.1 ± 9.48 | Tumor/kidney uptake ratio [3]: 0.14 ± 0.04 | Tumor/muscle uptake ratio [3]: 31.6 ± 12.1
